test system: Pseudomonas aeruginosa; test: Growth inhibition of Pseudomonas aeruginosa PAO1 at 50 uM relative to control; assay type: functional; conditions: read-out: GI

Compound | inhibition of growth at 50 µM [%]
COC(=O)CC1=NN(c2ccccc2)C(=O)/C1=C\c1ccsc1 | 10.8
COC(=O)CC1=NN(c2ccccc2)C(=O)/C1=C\c1ccc(Cl)cc1 | -5.15
COC(=O)CC1=NN(c2ccccc2)C(=O)/C1=C\c1ccc(OC)cc1OC | -3.78
COC(=O)CC1=NN(c2ccccc2)C(=O)/C1=C\c1ccccc1Br | 9.21
COC(=O)CC1=NN(c2ccccc2)C(=O)/C1=C\c1c[nH]c2ccccc12 | -10.8
COC(=O)CC1=NN(c2ccccc2)C(=O)/C1=C\c1ccc(N(C)C)cc1 | 2.45
COC(=O)CC1=NN(c2ccccc2)C(=O)/C1=C\c1ccc(O)cc1 | 14.1
COC(=O)CC1=NN(c2ccccc2)C(=O)/C1=C\c1cc(OC)c(OC)c(OC)c1 | -0.864
COC(=O)CC1=NN(c2ccccc2)C(=O)/C1=C\c1ccco1 | -14.8
CCOc1ccc(/C=C2\C(=O)N(c3ccccc3)N=C2CC(=O)OC)cc1OC | -1.25

test system: Pseudomonas aeruginosa; test: Inhibition of biofilm formation of Pseudomonas aeruginosa PAO1 at 50 uM by crystal violet staining-based spectrophotometric analysis relative to control; assay type: functional; conditions: not given

Compound | inhibition at 50 µM [%]
COC(=O)CC1=NN(c2ccccc2)C(=O)/C1=C\c1ccsc1 | -4.41
COC(=O)CC1=NN(c2ccccc2)C(=O)/C1=C\c1ccc(Cl)cc1 | 9.68
COC(=O)CC1=NN(c2ccccc2)C(=O)/C1=C\c1ccc(OC)cc1OC | -31.1
COC(=O)CC1=NN(c2ccccc2)C(=O)/C1=C\c1ccccc1Br | -22.9
COC(=O)CC1=NN(c2ccccc2)C(=O)/C1=C\c1c[nH]c2ccccc12 | -38.5
COC(=O)CC1=NN(c2ccccc2)C(=O)/C1=C\c1ccc(N(C)C)cc1 | -79.8
COC(=O)CC1=NN(c2ccccc2)C(=O)/C1=C\c1ccc(O)cc1 | -5.96
COC(=O)CC1=NN(c2ccccc2)C(=O)/C1=C\c1cc(OC)c(OC)c(OC)c1 | 11
COC(=O)CC1=NN(c2ccccc2)C(=O)/C1=C\c1ccco1 | 13.9
CCOc1ccc(/C=C2\C(=O)N(c3ccccc3)N=C2CC(=O)OC)cc1OC | -5.61

test system: Staphylococcus aureus; test: Inhibition of biofilm formation of Staphylococcus aureus MRSA 1094 at 50 uM by crystal violet staining-based spectrophotometric analysis relative to control; conditions: not given

Compound | inhibition at 50 µM [%]
COC(=O)CC1=NN(c2ccccc2)C(=O)/C1=C\c1ccsc1 | -23.8
COC(=O)CC1=NN(c2ccccc2)C(=O)/C1=C\c1ccc(Cl)cc1 | 21.5
COC(=O)CC1=NN(c2ccccc2)C(=O)/C1=C\c1ccc(OC)cc1OC | 37.6
COC(=O)CC1=NN(c2ccccc2)C(=O)/C1=C\c1ccccc1Br | 87.9
COC(=O)CC1=NN(c2ccccc2)C(=O)/C1=C\c1c[nH]c2ccccc12 | -126
COC(=O)CC1=NN(c2ccccc2)C(=O)/C1=C\c1ccc(N(C)C)cc1 | 35.9
COC(=O)CC1=NN(c2ccccc2)C(=O)/C1=C\c1ccc(O)cc1 | -7.01
COC(=O)CC1=NN(c2ccccc2)C(=O)/C1=C\c1cc(OC)c(OC)c(OC)c1 | 2.88
COC(=O)CC1=NN(c2ccccc2)C(=O)/C1=C\c1ccco1 | -167
CCOc1ccc(/C=C2\C(=O)N(c3ccccc3)N=C2CC(=O)OC)cc1OC | 15.2

test system: Staphylococcus aureus; test: Growth inhibition of Staphylococcus aureus ATCC 35556 at 50 uM relative to control; assay type: functional; conditions: read-out: GI

Compound | inhibition of growth at 50 µM [%]
COC(=O)CC1=NN(c2ccccc2)C(=O)/C1=C\c1ccsc1 | -17.5
COC(=O)CC1=NN(c2ccccc2)C(=O)/C1=C\c1ccc(Cl)cc1 | 10.3
COC(=O)CC1=NN(c2ccccc2)C(=O)/C1=C\c1ccc(OC)cc1OC | -5.55
COC(=O)CC1=NN(c2ccccc2)C(=O)/C1=C\c1ccccc1Br | -6.96
COC(=O)CC1=NN(c2ccccc2)C(=O)/C1=C\c1c[nH]c2ccccc12 | -19.7
COC(=O)CC1=NN(c2ccccc2)C(=O)/C1=C\c1ccc(N(C)C)cc1 | -18.4
COC(=O)CC1=NN(c2ccccc2)C(=O)/C1=C\c1ccc(O)cc1 | -7.76
COC(=O)CC1=NN(c2ccccc2)C(=O)/C1=C\c1cc(OC)c(OC)c(OC)c1 | -3.34
COC(=O)CC1=NN(c2ccccc2)C(=O)/C1=C\c1ccco1 | -15.4
CCOc1ccc(/C=C2\C(=O)N(c3ccccc3)N=C2CC(=O)OC)cc1OC | -2.46

test system: Staphylococcus aureus; test: Growth inhibition of Staphylococcus aureus MRSA 1094 at 50 uM relative to control; conditions: read-out: GI

Compound | inhibition of growth at 50 µM [%]
COC(=O)CC1=NN(c2ccccc2)C(=O)/C1=C\c1ccsc1 | 15
COC(=O)CC1=NN(c2ccccc2)C(=O)/C1=C\c1ccc(Cl)cc1 | 38
COC(=O)CC1=NN(c2ccccc2)C(=O)/C1=C\c1ccc(OC)cc1OC | -0.169
COC(=O)CC1=NN(c2ccccc2)C(=O)/C1=C\c1ccccc1Br | 53.5
COC(=O)CC1=NN(c2ccccc2)C(=O)/C1=C\c1c[nH]c2ccccc12 | 0.914
COC(=O)CC1=NN(c2ccccc2)C(=O)/C1=C\c1ccc(N(C)C)cc1 | 11.5
COC(=O)CC1=NN(c2ccccc2)C(=O)/C1=C\c1ccc(O)cc1 | 7.95
COC(=O)CC1=NN(c2ccccc2)C(=O)/C1=C\c1cc(OC)c(OC)c(OC)c1 | 20.9
COC(=O)CC1=NN(c2ccccc2)C(=O)/C1=C\c1ccco1 | 20.4
CCOc1ccc(/C=C2\C(=O)N(c3ccccc3)N=C2CC(=O)OC)cc1OC | 2.81

test system: Staphylococcus epidermidis; test: Growth inhibition of Staphylococcus epidermidis GTC 18972 at 50 uM relative to control; assay type: functional; conditions: read-out: GI

Compound | inhibition of growth at 50 µM [%]
COC(=O)CC1=NN(c2ccccc2)C(=O)/C1=C\c1ccsc1 | 33.8
COC(=O)CC1=NN(c2ccccc2)C(=O)/C1=C\c1ccc(Cl)cc1 | 32.4
COC(=O)CC1=NN(c2ccccc2)C(=O)/C1=C\c1ccc(OC)cc1OC | 20.5
COC(=O)CC1=NN(c2ccccc2)C(=O)/C1=C\c1ccccc1Br | 55
COC(=O)CC1=NN(c2ccccc2)C(=O)/C1=C\c1c[nH]c2ccccc12 | -2.37
COC(=O)CC1=NN(c2ccccc2)C(=O)/C1=C\c1ccc(N(C)C)cc1 | 27.7
COC(=O)CC1=NN(c2ccccc2)C(=O)/C1=C\c1ccc(O)cc1 | 30.2
COC(=O)CC1=NN(c2ccccc2)C(=O)/C1=C\c1cc(OC)c(OC)c(OC)c1 | 33.8
COC(=O)CC1=NN(c2ccccc2)C(=O)/C1=C\c1ccco1 | 25.9
CCOc1ccc(/C=C2\C(=O)N(c3ccccc3)N=C2CC(=O)OC)cc1OC | 22

test system: Staphylococcus aureus; test: Growth inhibition of methicillin-sensitive Staphylococcus aureus at 50 uM relative to control; assay type: functional; conditions: read-out: GI

Compound | inhibition of growth at 50 µM [%]
COC(=O)CC1=NN(c2ccccc2)C(=O)/C1=C\c1ccsc1 | -3.06
COC(=O)CC1=NN(c2ccccc2)C(=O)/C1=C\c1ccc(Cl)cc1 | 21.9
COC(=O)CC1=NN(c2ccccc2)C(=O)/C1=C\c1ccc(OC)cc1OC | -6.08
COC(=O)CC1=NN(c2ccccc2)C(=O)/C1=C\c1ccccc1Br | 8.69
COC(=O)CC1=NN(c2ccccc2)C(=O)/C1=C\c1c[nH]c2ccccc12 | -19.4
COC(=O)CC1=NN(c2ccccc2)C(=O)/C1=C\c1ccc(N(C)C)cc1 | -11.4
COC(=O)CC1=NN(c2ccccc2)C(=O)/C1=C\c1ccc(O)cc1 | -5.33
COC(=O)CC1=NN(c2ccccc2)C(=O)/C1=C\c1cc(OC)c(OC)c(OC)c1 | 1.49
COC(=O)CC1=NN(c2ccccc2)C(=O)/C1=C\c1ccco1 | -5.33
CCOc1ccc(/C=C2\C(=O)N(c3ccccc3)N=C2CC(=O)OC)cc1OC | -0.402

test system: Staphylococcus aureus; test: Inhibition of biofilm formation of methicillin-sensitive Staphylococcus aureus at 50 uM by crystal violet staining-based spectrophotometric analysis relative to control; assay type: functional; conditions: not given

Compound | inhibition at 50 µM [%]
COC(=O)CC1=NN(c2ccccc2)C(=O)/C1=C\c1ccsc1 | -5.79
COC(=O)CC1=NN(c2ccccc2)C(=O)/C1=C\c1ccc(Cl)cc1 | 86.7
COC(=O)CC1=NN(c2ccccc2)C(=O)/C1=C\c1ccc(OC)cc1OC | -61.9
COC(=O)CC1=NN(c2ccccc2)C(=O)/C1=C\c1ccccc1Br | 46.5
COC(=O)CC1=NN(c2ccccc2)C(=O)/C1=C\c1c[nH]c2ccccc12 | 8.02
COC(=O)CC1=NN(c2ccccc2)C(=O)/C1=C\c1ccc(N(C)C)cc1 | -27.3
COC(=O)CC1=NN(c2ccccc2)C(=O)/C1=C\c1ccc(O)cc1 | 9.96
COC(=O)CC1=NN(c2ccccc2)C(=O)/C1=C\c1cc(OC)c(OC)c(OC)c1 | 19.8
COC(=O)CC1=NN(c2ccccc2)C(=O)/C1=C\c1ccco1 | -15.6
CCOc1ccc(/C=C2\C(=O)N(c3ccccc3)N=C2CC(=O)OC)cc1OC | 57.8

test system: Staphylococcus epidermidis; test: Growth inhibition of Staphylococcus epidermidis 1457 at 50 uM relative to control; assay type: functional; conditions: read-out: GI

Compound | inhibition of growth at 50 µM [%]
COC(=O)CC1=NN(c2ccccc2)C(=O)/C1=C\c1ccsc1 | 14.3
COC(=O)CC1=NN(c2ccccc2)C(=O)/C1=C\c1ccc(Cl)cc1 | 23.1
COC(=O)CC1=NN(c2ccccc2)C(=O)/C1=C\c1ccc(OC)cc1OC | -1.75
COC(=O)CC1=NN(c2ccccc2)C(=O)/C1=C\c1ccccc1Br | 32.4
COC(=O)CC1=NN(c2ccccc2)C(=O)/C1=C\c1c[nH]c2ccccc12 | -7.59
COC(=O)CC1=NN(c2ccccc2)C(=O)/C1=C\c1ccc(N(C)C)cc1 | 9.19
COC(=O)CC1=NN(c2ccccc2)C(=O)/C1=C\c1ccc(O)cc1 | 15
COC(=O)CC1=NN(c2ccccc2)C(=O)/C1=C\c1cc(OC)c(OC)c(OC)c1 | 15.8
COC(=O)CC1=NN(c2ccccc2)C(=O)/C1=C\c1ccco1 | 13.9
CCOc1ccc(/C=C2\C(=O)N(c3ccccc3)N=C2CC(=O)OC)cc1OC | 4.08

test system: Staphylococcus epidermidis; test: Inhibition of biofilm formation of Staphylococcus epidermidis GTC 18972 at 50 uM by crystal violet staining-based spectrophotometric analysis relative to control; assay type: functional; conditions: not given

Compound | inhibition at 50 µM [%]
COC(=O)CC1=NN(c2ccccc2)C(=O)/C1=C\c1ccsc1 | 10.8
COC(=O)CC1=NN(c2ccccc2)C(=O)/C1=C\c1ccc(Cl)cc1 | 20.4
COC(=O)CC1=NN(c2ccccc2)C(=O)/C1=C\c1ccc(OC)cc1OC | -5.55
COC(=O)CC1=NN(c2ccccc2)C(=O)/C1=C\c1ccccc1Br | 82.6
COC(=O)CC1=NN(c2ccccc2)C(=O)/C1=C\c1c[nH]c2ccccc12 | 54.5
COC(=O)CC1=NN(c2ccccc2)C(=O)/C1=C\c1ccc(N(C)C)cc1 | 3.75
COC(=O)CC1=NN(c2ccccc2)C(=O)/C1=C\c1ccc(O)cc1 | 2.6
COC(=O)CC1=NN(c2ccccc2)C(=O)/C1=C\c1cc(OC)c(OC)c(OC)c1 | 12.8
COC(=O)CC1=NN(c2ccccc2)C(=O)/C1=C\c1ccco1 | 12.1
CCOc1ccc(/C=C2\C(=O)N(c3ccccc3)N=C2CC(=O)OC)cc1OC | 15.6

test system: Staphylococcus epidermidis; test: Inhibition of biofilm formation of Staphylococcus epidermidis 1457 at 50 uM by crystal violet staining-based spectrophotometric analysis relative to control; assay type: functional; conditions: not given

Compound | inhibition at 50 µM [%]
COC(=O)CC1=NN(c2ccccc2)C(=O)/C1=C\c1ccsc1 | 2.03
COC(=O)CC1=NN(c2ccccc2)C(=O)/C1=C\c1ccc(Cl)cc1 | 6.08
COC(=O)CC1=NN(c2ccccc2)C(=O)/C1=C\c1ccc(OC)cc1OC | -0.983
COC(=O)CC1=NN(c2ccccc2)C(=O)/C1=C\c1ccccc1Br | 50.8
COC(=O)CC1=NN(c2ccccc2)C(=O)/C1=C\c1c[nH]c2ccccc12 | 47.7
COC(=O)CC1=NN(c2ccccc2)C(=O)/C1=C\c1ccc(N(C)C)cc1 | 1.24
COC(=O)CC1=NN(c2ccccc2)C(=O)/C1=C\c1ccc(O)cc1 | 3.69
COC(=O)CC1=NN(c2ccccc2)C(=O)/C1=C\c1cc(OC)c(OC)c(OC)c1 | 10.6
COC(=O)CC1=NN(c2ccccc2)C(=O)/C1=C\c1ccco1 | 9.86
CCOc1ccc(/C=C2\C(=O)N(c3ccccc3)N=C2CC(=O)OC)cc1OC | -1.83

test system: Staphylococcus aureus; test: Inhibition of biofilm formation of Staphylococcus aureus ATCC 35556 at 50 uM by crystal violet staining-based spectrophotometric analysis relative to control; assay type: functional; conditions: not given

Compound | inhibition at 50 µM [%]
COC(=O)CC1=NN(c2ccccc2)C(=O)/C1=C\c1ccsc1 | 0.355
COC(=O)CC1=NN(c2ccccc2)C(=O)/C1=C\c1ccc(Cl)cc1 | 88.1
COC(=O)CC1=NN(c2ccccc2)C(=O)/C1=C\c1ccc(OC)cc1OC | 1.53
COC(=O)CC1=NN(c2ccccc2)C(=O)/C1=C\c1ccccc1Br | 65.8
COC(=O)CC1=NN(c2ccccc2)C(=O)/C1=C\c1c[nH]c2ccccc12 | 62
COC(=O)CC1=NN(c2ccccc2)C(=O)/C1=C\c1ccc(N(C)C)cc1 | 9.7
COC(=O)CC1=NN(c2ccccc2)C(=O)/C1=C\c1ccc(O)cc1 | -0.723
COC(=O)CC1=NN(c2ccccc2)C(=O)/C1=C\c1cc(OC)c(OC)c(OC)c1 | 31.2
COC(=O)CC1=NN(c2ccccc2)C(=O)/C1=C\c1ccco1 | 6.49
CCOc1ccc(/C=C2\C(=O)N(c3ccccc3)N=C2CC(=O)OC)cc1OC | 34

Reference: ChEMBL document CHEMBL2385025, “Detour of prenostodione synthesis towards pyrazolones for antibacterial activity” (2013)
